# Measured values taken from patent publication US20150374709A1, “TETRA-SUBSTITUTED NDGA DERIVATIVES VIA ETHER BONDS AND CARBAMATE BONDS AND THEIR SYNTHESIS AND PHARMACEUTICAL USE” (ERIMOS PHARMACEUTICALS LLC, priority 2006, published 2015).
# pIC50: −log10 of the molar value. Several values for one entry are separate records, joined by “and”; a condition that tells them apart may be missing. Equal entries are not always repeated. Structures can show the parent of a compound that is named as a salt. Where two headings read alike, the source gives them in different places.
# What was measured:
# [1] = test system: A549 (lung carcinoma); experiment: MTS cell viability assay, A549; format: cell-based; details: Homo sapiens
# Description: (§1) Studies performed regarding cytotoxicity included the well-known MTS, Trypan Blue and MTT protocols. The MTS studies were done using the CellTiter 96®AQueous One Solution Cell Proliferation Assay (Promega Corporation, Madison, Wis. USA). Metabolically active, namely viable, cells turn MTS, a tetrazolium compound (3-(4,5-dimethylthiazol-2-yl)-5-(3-carboxymethoxyphenyl)-2-(4-sulfophenyl)-2H-tetrazolium, inner salt) into colored formazan, which is soluble in tissue culture medium. The measurement of the absorbance of the formazan is read at 490 nm. The ready to use reagent is added directly to the cells in media in 96-well plates, incubated 1-4 hours and the results are recorded by the plate reader. The IC50 is estimated by graphing the gathered data. The IC50 is the concentration of the tested material that inhibits 50% of growth or viability of the tested material compared to a control.
# (§2) Three cell lines obtained from ATCC and maintained as directed by ATCC were tested: HeLa (cervical adenocarcinoma), A549 (lung carcinoma), and COS-7 (SV40 transformed monkey kidney). Studies of these cell lines are considered to be indicative of the effect of tested substances on mammalian, including human, diseases.
# (§3) All compounds were dissolved in DMSO and DMSO is used as the placebo. The samples were first dissolved into 10 mM dilutions in DMSO and then diluted further to 5, 1, 0.5, 0.1, 0.05, and 0.01 mM solutions. These solutions were added to the media at a 1% concentration (1 μl to 100 μl media) to treat the cells with 100, 50, 10, 5, 1, 0.5, and 0.1 μM of the compound. […] Solutions were checked before use for precipitation, especially the 10 mM solutions. If there was precipitation, they were warmed 65° C. and added to warmed media.
# (§4) Wells on a 96-well plate were seeded with 1.5-8×10^4 cells in 100 μl media and incubated overnight. The outside wells of the plate were filled with 200 μl sterile, deionized (DI) water to curb media evaporation. After 24 hours, test chemicals were prepared in media at a concentration of 1% media volume. The test sample media were added, mixing with pipette before adding 100 μl per well. Media was added to the “Media Only” wells. The well plate and its contents were incubated for 24-72 hours, depending on the study conducted. On the thy of the MTS assay, the MTS reagent was removed from the refrigerator and brought to room temperature. Using the multichannel pipette, 20 μl of the MTS reagent was added to each well and incubated for one to four hours. The plate was read at 490 nm with a reference wavelength of 690 nm after one hour in the incubator thereafter until the blank wells were at about 0.2 OD. The results were then scanned into a Microsoft® Excel® template designed to perform all necessary calculations whim data are entered. The data were checked for statistical errors; data points that are within 10% of the mean of the data points for that group were included. The average of the blanks (“Media Only”) were subtracted and the data were inserted into a chart that represents growth response, treated/untreated.
# [2] = test system: HeLa (cervical adenocarcinoma); experiment: MTS cell viability assay, HeLa; format: cell-based; details: Homo sapiens, HeLa, read-out: HeLa IC50
# Description: as §1, §2, §3, §4
# [3] = test system: apoptosis of cells based on DNA fragmentation; experiment: TiterTACS DNA fragmentation apoptosis assay; format: cell-based; details: TiterTACS apoptosis detection
# Description: Antiproliferative activity is determined using the TiterTACS® Apoptosis Detection Kit (R&D Systems Inc., Minneapolis, Minn. USA) relating to apoptosis of cells based on DNA fragmentation, and by the ELISA VEGF ([…]) and survivin assays.
# In the DNA fragmentation assay, in situ detection of apoptosis is specifically achieved with TiterTACS® 96-well Apoptosis Detection kit, Catalog No. TA600 (R&D Systems, Inc.). The TiterTACS® assay provides quantification of apoptosis in cultured cells without direct counting of labeled cells using colorimetric detection. Cells are treated with the test compounds, left untreated as experimental negative controls, or treated with TACS nuclease as positive controls. TACS nuclease allows positive controls to be generated for each experimental system: a brief treatment of cells with the TACS nuclease prior to labeling generates DNA breaks in every cell, providing an appropriate positive control specific for the system under study. The TdT enzyme that catalyzes the addition of dNTPs to DNA fragments allows for colorimetric detection of at 450 nm by using a streptavidin-HRP solution followed by the TACS-Sapphire substrate. A high absorbance at 450 nm is indicative of apoptosis in the cells. Treated cells are compared to untreated cells and to nuclease-cleaved cells to assess the extent of apoptosis.
# [4] = test system: survivin; experiment: ELISA survivin assay (cell lysates); format: cell-based, Human
# Description: Survivin is an inhibitor of apoptosis that is abundantly expressed in many human cancers, but not in normal adult human tissue, and is considered a possible modulator of the terminal effector phase of cell death/survival. Survivin is expressed in G2-M in a cell cycle-dependent manner, binding directly to mitotic spindle microtubules. […] Phosphorylated survivin acts on the caspase pathway to suppress the formation of caspase-3 and caspase-9, thereby inhibiting apoptosis. Thus, compounds that reduce the expression of survivin will be expected to increase the rate of apoptosis and cell death.
# Effects of the tested compounds on survivin were studied following manufacturer's instructions using the Surveyor™ IC Human Total Survivin Immunoassay, Catalog No. SUV647 (R&D Systems, Inc.). Cell lysates were analyzed for survivin protein content. The kit includes a plate coated with an antibody specific for survivin and a biotinylated antibody reagent that recognizes survivin bound to the plate. The plate is read on a plate reader set at 450 nm and corrected at 540 nm. A protein assay according to the Bradford method (Bradford, M. 1976, Anal Biochem 72: 248-254) was used to quantify and normalize the samples according to total protein content. Results from a standard curve enable the user to quantify the amount of survivin protein in each sample.
# [5] = test system: VEGF; experiment: ELISA VEGF assay (DFO-treated cells); format: cell-based, Human
# Description: ELISA (Enzyme-Linked ImmunoSorbent Assay) VEGF studies were done following manufacturer's instructions using the Endogen® Human VEGF ELISA kit, Catalog No. […] (Pierce Biotechnology, Inc., Rockford, Ill. USA). Hypoxic conditions are created for the cells by treating them with desferrioxamine (DFO), which chelates iron and causes the cells to secrete VEGF into the media. The supernatant (media) was removed and frozen for testing, and the cells were counted with the Trypan Blue assay so that the results can be normalized to cell count. The VEGF is measured with a sandwich ELISA that captures the protein in media on an antibody-coated microplate, and then uses a biotinylated antibody reagent to detect the protein. Results from a standard curve enable the user to quantify the amount of protein in each sample.
# [6] = Caco-2 monolayer bidirectional permeability; format: in vitro ADME, human; details: human, Caco-2, pH 7.4; control at 5 μM, 90 minutes, duplicate monolayers
# Description: (§5) Permeability studies were conducted by an outside contractor on behalf of the assignee of the present invention and application to determine the permeability of Compound A through Caco-2 monolayers. An important factor of oral bioavailability is the ability of e compound to be absorbed in the small intestine. Measurement of drug apparent permeability (Papp) through cell monolayers is well correlated with human intestinal absorption, and several mammalian cell lines, including Caco-2, LLC-PK1 and MDCK, are appropriate for this measurement (Artursson, P. et al., Correlation between oral drug absorption in humans and apparent drug permeability coefficients in human intestinal epithelial (Caco-2) cells. Biochem Biophys Res Comm 175:880-885 (1991); Stewart. B. H., et al., Comparison of intestinal permeabilities in multiple in vitro and in situ models: relationship to absorption in humans. Pharm Res 12:693 (1995)). P-Glycoprotein (P-gp, encoded by MDR1) is a member of the ABC transporter super family and is expressed in the human intestine, liver and other tissues. Intestinal expression of P-gp may affect the oral bioavailability of drug molecules that are substrates for this transporter. Interaction with P-gp can be studied using direct assays of drug transport in polarized cell systems such as Caco-2 cell monolayers, and human P-gp cDNA-expressing LLC-PK1 and MDCK cell monolayers. Caco-2 cells (human adenocarcinoma colonic cell line Caco-2, ATCC Cat. No. […] The cells were cultured for 21-25 days with media replacement every 3-4 days. Monolayer integrity was evaluated by pre-experimental trans-epithelial electrical resistance (TEER) measurements and post-experimental lucifer yellow A to B flux determinations. […] Receiver solution was prepared by adding 1% DMSO to transport buffer. The test solution was of Compound A in DMSO in transport buffer at a final DMSO concentration of 1%. […] The donor and receiver solutions were added to the apical or basolateral chambers of the monolayers (depending on the direction of transport to be measured). The monolayers were incubated on an orbital shaker (50 rpm) at 37° C., with ambient humidity and CO2. After 90 minutes, samples from the donor and receiver chambers were removed for analysis. […] Duplicate monolayers were used for each incubation. Samples were analyzed by LC/MS/MS using peak area ratios to an internal standard. Test article concentrations were calculated based on the peak area ratios obtained for appropriate dilutions of the donor solution containing the test article at the nominal concentration in transport buffer. Samples were diluted as appropriate to ensure that the response was within the linear range of the mass spec detector. Comparator and control samples were analyzed by liquid scintillation counting. Lucifer yellow concentrations were determined using a fluorescence plate reader.
# [7] = test system: Caco-2 cell monolayers; experiment: Caco-2 monolayer bidirectional permeability; format: in vitro ADME, human
# Description: as §5
# [8] = A549, MTS assay, read-out: A549 IC50
# [9] = survivin protein in cell lysates, normalized to total protein; read-out: Survivin IC50
# [10] = VEGF released into media by DFO-treated cells, normalized to cell count; read-out: VEGF IC50
# [11] = read-out: Survivin IC50; survivin protein in cell lysates, normalized to total protein
compound,measurement,setting,value
"C[C@H](Cc1ccc(OCCCCN2CCCCC2)c(OCCCCN2CCCCC2)c1)[C@@H](C)Cc1ccc(OCCCCN2CCCCC2)c(OCCCCN2CCCCC2)c1 [Compound D, 1,4-bis{3,4-bis[4-(N-piperidino)butoxyl]phenyl}-2,3-dimethyl-(2R,3S)-butane tetrakis-hydrochloride salt]",pIC50,[1]; [8],5.30 to 6.00
same,pIC50,[2]; MTS assay,5.00 to 5.30
same,DNA fragmentation,[3],Positive
same,pIC50,[4]; [9],~5.40 and 5.40
same,pIC50,[5]; [10],~5.05 and 5.05
"C[C@H](Cc1ccc(OCCN(C)C)c(OCCN(C)C)c1)[C@@H](C)Cc1ccc(OCCN(C)C)c(OCCN(C)C)c1 [Compound G, 1,4-bis{3,4-bis(2-(N,N′-dimethylamino)-ethoxy)phenyl}-2,3-dimethyl-(2R,3S)-butane]",pIC50,"[1]; A549, read-out: A549 IC50",4.70 to 4.82
same,pIC50,[2],4.70 to 4.82
same,pIC50,"[5]; read-out: VEGF IC50; VEGF released into media by DFO-treated cells, normalized to cell count; listed as G in H2O",4.60
"C[C@H](Cc1ccc(OCCN(C)C)c(OCCN(C)C)c1)[C@@H](C)Cc1ccc(OCCN(C)C)c(OCCN(C)C)c1 [Compound H, 1,4-bis{3,4-bis(2-(N,N′-dimethylamino)-ethoxy)phenyl}-2,3-dimethyl-(2R,3S)-butane tetrakishydrochloride salt]",DNA fragmentation,[3],Positive
same,pIC50,[4]; [11],5.00
same,pIC50,"[5]; read-out: VEGF IC50; VEGF released into media by DFO-treated cells, normalized to cell count; listed as H in H2O",4.64
"C[C@H](Cc1ccc(OCCF)c(OCCF)c1)[C@@H](C)Cc1ccc(OCCF)c(OCCF)c1 [Compound K, 1,4-bis[3,4-bis(2-fluoro-ethoxyl)phenyl]-2,3-dimethyl-(2R,3S)-butane]",pIC50,[1]; [8],< 4.00
same,pIC50,[2]; MTS assay,< 4.00
"C[C@H](Cc1ccc(OCCCCN2CCOCC2)c(OCCCCN2CCOCC2)c1)[C@@H](C)Cc1ccc(OCCCCN2CCOCC2)c(OCCCCN2CCOCC2)c1 [Compound M, 1,4-bis{3,4-bis[4-(N-morpholino)butoxyl]phenyl}-2,3-dimethyl-(2R,3S)-butane]",pIC50,[1]; [8],5.30 to 6.00
same,pIC50,[2]; MTS assay,5.00 to 5.30
same,DNA fragmentation,[3],Positive
same,pIC50,[4]; [9],5.30
same,pIC50,[5]; [10],~5.05 and 5.05
"C[C@H](Cc1ccc(OCCCCN2CCN(C)CC2)c(OCCCCN2CCN(C)CC2)c1)[C@@H](C)Cc1ccc(OCCCCN2CCN(C)CC2)c(OCCCCN2CCN(C)CC2)c1 [Compound O, 1,4-bis{3,4-bis[4-(N-methyl-piperazino-N′-yl)butoxyl]phenyl}-2,3-dimethyl-(2R,3S)-butane octa-hydrochloride]",pIC50,"[1]; A549, read-out: A549 IC50",5.05 to 5.10
same,pIC50,[2],4.52 to 5.00
same,DNA fragmentation,[3],Positive
same,pIC50,[4]; [11],4.85
same,pIC50,"[5]; read-out: VEGF IC50; VEGF released into media by DFO-treated cells, normalized to cell count",4.74
"C[C@H]1O[C@@H](O[C@H]2[C@@H](O)C[C@H](O[C@H]3[C@@H](O)C[C@H](O[C@H]4CC[C@@]5(C)[C@H](CC[C@@H]6[C@@H]5C[C@@H](O)[C@]5(C)[C@@H](C7=CC(=O)OC7)CC[C@]65O)C4)O[C@@H]3C)O[C@@H]2C)C[C@H](O)[C@@H]1O [digoxin, reference compound]",Papp B→A at 90 min,[6],12.4 ×10⁻⁶ cm/s
same,Papp mean A to B,"[7]; comparators/control at the concentration in the row (5 or 50 μM), 90 minutes, duplicate monolayers",2.28 ×10⁻⁶ cm/s
same,Mass balance mean A to B,"[7]; comparators/control, 90 minutes",73%
same,Mass balance mean B to A,"[7]; control, 90 minutes",79%
"OC[C@@H](O)[C@@H](O)[C@H](O)[C@H](O)CO [mannitol, reference compound]",Mass balance mean A to B,"[7]; human, Caco-2, 90 min, pH 7.4",96%
"CC(C)NCC(O)COc1cccc2ccccc12 (centres unmarked) [propranolol, reference compound]",Mass balance mean A to B,"[7]; human, Caco-2, 90 min, pH 7.4",71%
